Experimental data published in patent publication US20130303575A1, “ADMINISTRATION OF AN INHIBITOR OF HDAC” (priority 2007, published 2013).
Entries after “also recorded” stand apart in the source; their conditions may differ. Marks after values point to notes of the source that are not given here.

Experiment: Safety, DLT, MTD and adverse events in patients with advanced solid tumors or lymphoma (Example 2)
Assay type: in vivo
Text: DLT was defined as first course adverse events […] hematologic toxicity. The MTD was defined as one dose level below the dose at which […] of six patients experienced DLT.
Dose reduction by one level was applied for the occurrence of either grade 3 nonhematologic toxicity, grade 4 hematologic toxicity, persistent (≦2 weeks) grade 2 nonhematologic toxicity, or per the investigator's assessment. […] No limitation for the number of dose reductions was chosen.
At study entry, history, physical examination, laboratory studies (CBC, electrolytes, creatinine, blood urea nitrogen, total and direct bilirubin, ALT, AST, alkaline phosphatase, uric acid, prothrombin time, partial thromboplastin time, and urinalysis), computed tomography scan and chest x-ray and ECG were performed. Clinical assessments, including a physical examination and adverse event evaluation, were conducted at each follow-up. Adverse events were graded by the NCI Common Toxicity Criteria (version 2.0). Computed tomography scans and staging was performed every 6 weeks for the q14-day schedule. Disease-specific staging techniques, such as bone marrow aspirate and biopsy, flow cytometry, cutaneous lesion photography, or bone scan were used as indicated. Response evaluations used the Response Evaluation Criteria in Solid Tumors and the Cheson criteria for lymphoma. Multiple-gated acquisition (MUGA) scans were obtained on the q14-day schedule at base line, before course 2 and at each restaging. Laboratory studies (CBC with differential, chemistry 20, prothrombin time and […] thromboplastin time) were performed on days 1, 3, 5, 7 and repeated weakly.

For Nc1ccccc1NC(=O)c1ccc(CNC(=O)OCc2cccnc2)cc1 [SNDX-275, N-(2-aminophenyl) 4-[N-(pyrid-3-yl)methyloxycarbonylaminomethyl]benzamide], the DLTs (Every 14 days, 2 mg/m^2) was 0, the “No. of Patients With First Course DLT” value (Every 14 days, 2 mg/m^2) was 0 and the DLTs (Every 14 days, 4 mg/m^2) was 0. The “No. of Patients With First Course DLT” value (Every 14 days, 4 mg/m^2) was 0, the “No. of Patients With First Course DLT” value (Every 14 days, 6 mg/m^2) was 1 and the DLTs (Every 14 days, 6 mg/m^2, anorexia, nausea, and vomiting) was 3†. For the same compound, the DLTs (Every 14 days, 8 mg/m^2) was 0, the “No. of Patients With First Course DLT” value (Every 14 days, 8 mg/m^2) was 0 and the “No. of Patients With First Course DLT” value (Every 14 days, 10 mg/m^2) was 1. The DLTs (Every 14 days, 10 mg/m^2, anorexia, nausea, and vomiting) was 3†, the “No. of Patients With First Course DLT” value (Every 14 days, 12 mg/m^2) was 2 and the DLTs (Every 14 days, 12 mg/m^2, anorexia, nausea, vomiting, and fatigue) was 7‡. For the same compound, the “No. of Patients With First Course DLT” value (Every day x 28/42 days, 2 mg/m^2, 2 patients) was 2, the MTD (daily schedule (once-a-day×28 every 6 weeks), first dose level 2 mg/m^2) was “exceeded at the first dose level” and the “Abdominal pain: % (All Grades)” value (human, in vivo) was 7%. The “Anemia: No. of Patients (All Grades)” value (human, in vivo) was 8, the “Anorexia: % (All Grades)” value (human, in vivo) was 36% and the “Anorexia: Grade 3” value (human, in vivo) was 4. For the same compound, the “Anorexia: No. of Patients (All Grades)” value (human, in vivo) was 10, the “Bilirutin: % (All Grades)” value (human, in vivo) was 14% and the “Bilirutin: No. of Patients (All Grades)” value (human, in vivo) was 4. The “Chest pain: % (All Grades)” value (human, in vivo) was 7%, the “Chest pain: No. of Patients (All Grades)” value (human, in vivo) was 2 and the “Constipation: % (All Grades)” value (human, in vivo) was 7%. For the same compound, the “Constipation: No. of Patients (All Grades)” value (human, in vivo) was 2, the “Hypermagnesemia: No. of Patients (All Grades)” value (human, in vivo) was 2 and the “Hypoalbuminemia: % (All Grades)” value (human, in vivo) was 64%. For the same compound, the “Hypoalbuminemia: No. of Patients (All Grades)” value (human, in vivo) was 18, the “Hypocalcemia: % (All Grades)” value (human, in vivo) was 21% and the “Hypocalcemia: No. of Patients (All Grades)” value (human, in vivo) was 6. The “Hypokalemia: % (All Grades)” value (human, in vivo) was 4%, the “Hypokalemia: No. of Patients (All Grades)” value (human, in vivo) was 1 and the “Hyponatremia: % (All Grades)” value (human, in vivo) was 25%. The “Hyponatremia: No. of Patients (All Grades)” value (human, in vivo) was 7, the “Infection w/o neutropenia: % (All Grades)” value (human, in vivo) was 7% and the “Infection w/o neutropenia: Grade 3” value (human, in vivo) was 0. The “Infection w/o neutropenia: No. of Patients (All Grades)” value (human, in vivo) was 2, the “Leucopenia: % (All Grades)” value (human, in vivo) was 21% and the “Leucopenia: No. of Patients (All Grades)” value (human, in vivo) was 6. The “Libido: % (All Grades)” value (human, in vivo) was 4%, the “Libido: Grade 3” value (human, in vivo) was 0 and the “Libido: No. of Patients (All Grades)” value (human, in vivo) was 1. The “Myalgia: Grade 3” value (human, in vivo) was 0, the “Myalgia: No. of Patients (All Grades)” value (human, in vivo) was 1 and the “Nail changes: % (All Grades)” value (human, in vivo) was 4%. The “Nail changes: Grade 3” value (human, in vivo) was 0, the “Nail changes: No. of Patients (All Grades)” value (human, in vivo) was 1 and the “Nausea: % (All Grades)” value (human, in vivo) was 64%. The “Nausea: Grade 3” value (human, in vivo) was 4, the “Nausea: No. of Patients (All Grades)” value (human, in vivo) was 18 and the “Neurosensory deficits: % (All Grades)” value (human, in vivo) was 7%. For the same compound, the “Neurosensory deficits: No. of Patients (All Grades)” value (human, in vivo) was 2, the “Sinus Tachycardia: No. of Patients (All Grades)” value (human, in vivo) was 1 and the “Stomatitis: % (All Grades)” value (human, in vivo) was 4%. The “Stomatitis: No. of Patients (All Grades)” value (human, in vivo) was 1, the “Sweating: % (All Grades)” value (human, in vivo) was 4% and the “Sweating: Grade 3” value (human, in vivo) was 0. For the same compound, the “Sweating: No. of Patients (All Grades)” value (human, in vivo) was 1, the “Taste disturbance: % (All Grades)” value (human, in vivo) was 29% and the “Taste disturbance: Grade 3” value (human, in vivo) was 0. For the same compound, the “Taste disturbance: No. of Patients (All Grades)” value (human, in vivo) was 8, the tolerability (human, in vivo, po) was “intolerable” and the “MTD (and recommended phase II dose)” value (q14-day schedule) was 10 mg/m^2. The “SNDX-275-related first course grade 4 adverse events” value (q14-day schedule) was “no SNDX-275-related first course grade 4 adverse events”, the dose-limiting toxicities (q14-day schedule) was “nausea, vomiting, anorexia and fatigue; also recorded: anorexia, nausea, vomiting and fatigue” and the tolerability (q14-day schedule) was “reasonably well-tolerated”. For the same compound, the “Abdominal pain: No. of Patients (All Grades)” value (q14-day schedule, first course) was 2, the “Alkaline phosphatase: % (All Grades)” value (q14-day schedule, first course) was 4% and the “Alkaline phosphatase: No. of Patients (All Grades)” value (q14-day schedule, first course) was 1. The “Allergic reaction: % (All Grades)” value (q14-day schedule, first course) was 4%, the “Allergic reaction: Grade 3” value (q14-day schedule, first course) was 0 and the “Allergic reaction: No. of Patients (All Grades)” value (q14-day schedule, first course) was 1. For the same compound, the “Anemia: % (All Grades)” value (q14-day schedule, first course) was 29%, the “Cough: % (All Grades)” value (q14-day schedule, first course) was 4% and the “Cough: No. of Patients (All Grades)” value (q14-day schedule, first course) was 1. For the same compound, the “Creatinine: % (All Grades)” value (q14-day schedule, first course) was 7%, the “Creatinine: No. of Patients (All Grades)” value (q14-day schedule, first course) was 2 and the “Dehydration: % (All Grades)” value (q14-day schedule, first course) was 11%. The “Dehydration: Grade 3” value (q14-day schedule, first course) was 0, the “Dehydration: No. of Patients (All Grades)” value (q14-day schedule, first course) was 3 and the “Depression: % (All Grades)” value (q14-day schedule, first course) was 4%. The “Depression: Grade 3” value (q14-day schedule, first course) was 0, the “Depression: No. of Patients (All Grades)” value (q14-day schedule, first course) was 1 and the “Diarrhea: % (All Grades)” value (q14-day schedule, first course) was 7%. The “Diarrhea: No. of Patients (All Grades)” value (q14-day schedule, first course) was 2, the “Dyspepsia: % (All Grades)” value (q14-day schedule, first course) was 21% and the “Dyspepsia: No. of Patients (All Grades)” value (q14-day schedule, first course) was 6. For the same compound, the “Fatigue: % (All Grades)” value (q14-day schedule, first course) was 54%, the “Fatigue: Grade 3” value (q14-day schedule, first course) was 1 and the “Fatigue: No. of Patients (All Grades)” value (q14-day schedule, first course) was 15. The “Fever: % (All Grades)” value (q14-day schedule, first course) was 4%, the “Fever: Grade 3” value (q14-day schedule, first course) was 0 and the “Fever: No. of Patients (All Grades)” value (q14-day schedule, first course) was 1. For the same compound, the “Flatulence: % (All Grades)” value (q14-day schedule, first course) was 11%, the “Flatulence: No. of Patients (All Grades)” value (q14-day schedule, first course) was 3 and the “GI other: % (All Grades)” value (q14-day schedule, first course) was 7%. For the same compound, the “GI other: No. of Patients (All Grades)” value (q14-day schedule, first course) was 2, the “Headache: % (All Grades)” value (q14-day schedule, first course) was 50% and the “Headache: Grade 3” value (q14-day schedule, first course) was 0. The “Headache: No. of Patients (All Grades)” value (q14-day schedule, first course) was 14, the “Hyperglycemia: % (All Grades)” value (q14-day schedule, first course) was 11% and the “Hyperglycemia: No. of Patients (All Grades)” value (q14-day schedule, first course) was 3. For the same compound, the “Hypermagnesemia: % (All Grades)” value (q14-day schedule, first course) was 7%, the “Lymphopenia: % (All Grades)” value (q14-day schedule, first course) was 18% and the “Lymphopenia: No. of Patients (All Grades)” value (q14-day schedule, first course) was 5. For the same compound, the “Middle ear infection: % (All Grades)” value (q14-day schedule, first course) was 4%, the “Middle ear infection: Grade 3” value (q14-day schedule, first course) was 0 and the “Middle ear infection: No. of Patients (All Grades)” value (q14-day schedule, first course) was 1. For the same compound, the “Muscle weakness: % (All Grades)” value (q14-day schedule, first course) was 4%, the “Muscle weakness: Grade 3” value (q14-day schedule, first course) was 0 and the “Muscle weakness: No. of Patients (All Grades)” value (q14-day schedule, first course) was 1. The “Myalgia: % (All Grades)” value (q14-day schedule, first course) was 4%, the “Neutropenia: % (All Grades)” value (q14-day schedule, first course) was 25% and the “Neutropenia: No. of Patients (All Grades)” value (q14-day schedule, first course) was 7. For the same compound, the “Pain other: % (All Grades)” value (q14-day schedule, first course) was 4%, the “Pain other: No. of Patients (All Grades)” value (q14-day schedule, first course) was 1 and the “Pleuretic pain: % (All Grades)” value (q14-day schedule, first course) was 4%. The “Pleuretic pain: No. of Patients (All Grades)” value (q14-day schedule, first course) was 1, the “Rhinitis: % (All Grades)” value (q14-day schedule, first course) was 4% and the “Rhinitis: No. of Patients (All Grades)” value (q14-day schedule, first course) was 1. For the same compound, the “Sinus Tachycardia: % (All Grades)” value (q14-day schedule, first course) was 3%, the “Thrombooytopenia: % (All Grades)” value (q14-day schedule, first course) was 36% and the “Thrombooytopenia: No. of Patients (All Grades)” value (q14-day schedule, first course) was 10. For the same compound, the “Tremors: % (All Grades)” value (q14-day schedule, first course) was 4%, the “Tremors: No. of Patients (All Grades)” value (q14-day schedule, first course) was 1 and the “Urinary electrolyte wasting: % (All Grades)” value (q14-day schedule, first course) was 11%. The “Urinary electrolyte wasting: No. of Patients (All Grades)” value (q14-day schedule, first course) was 3, the “Vomiting: % (All Grades)” value (q14-day schedule, first course) was 39% and the “Vomiting: Grade 3” value (q14-day schedule, first course) was 4. The “Vomiting: No. of Patients (All Grades)” value (q14-day schedule, first course) was 11.
